Laboratory results taken from publication PMC5053523, “In Vitro Antibacterial Activity of Rhodanine Derivatives against Pathogenic Clinical Isolates” (PLoS ONE, 2016).
Converted amounts (≈) assume the structure as drawn. Where two headings read alike, the source gives them in different places.

Tests used:
Escherichia coli O157:H7 [1] = assay: MIC with/without PMBN, Escherichia coli O157:H7; type: cell-based
Procedure: (§1) The MIC of the rhodanines and control antibiotics, in the presence of a sub-inhibitory concentration of colistin or polymixin B nonapeptide (PMBN), against Gram-negative bacteria was evaluated as described before. The antibacterial activity of the rhodanines was further investigated against E. coli SM1411Δ acrAB, a strain that is deficient in the multidrug-resistant AcrAB efflux pump, as described before.

Acinetobacter baumannii [2] = assay: MIC with/without sub-MIC colistin, Acinetobacter baumannii; type: cell-based
Procedure: as §1

Klebsiella pneumoniae [3] = assay: MIC with/without PMBN, Klebsiella pneumoniae; type: cell-based
Procedure: as §1

Klebsiella pneumoniae [4] = assay: MIC with/without sub-MIC colistin, Klebsiella pneumoniae; type: cell-based
Procedure: as §1

Acinetobacter baumannii [5] = assay: MIC with/without PMBN, Acinetobacter baumannii; type: cell-based
Procedure: as §1

MRSA USA300 = assay: MIC against MRSA USA300 with and without 4% human serum albumin; type: cell-based, Staphylococcus aureus; settings: Staphylococcus aureus, read-out: MIC against MRSA USA300
Procedure: The minimum inhibitory concentration (MIC) and the minimum bactericidal concentration (MBC) of rhodanine compounds 1 to 7 were determined against various Gram-positive and Gram-negative pathogens (S1 Table) following the guidelines of the Clinical and Laboratory Standards Institute (CLSI)[4]. The broth microdilution technique was used, followed by subculturing on agar plates that were rhodanine—free. […] The MICs reported represent the lowest concentration of each compound necessary to inhibit bacterial growth and the MBCs represent the lowest concentration required to reduce the initial bacterial inoculum by ≥ 99.9%.
The antimicrobial activity of rhodanine compounds in the presence of 4% human serum albumin (HSA) was tested against MRSA USA300. The MICs of rhodanine compounds and control antibiotics (vancomycin and daptomycin) were tested as described in the methods above using tryptic soy broth spiked with 4% HSA. We also synthesized and tested three more compounds, ethyl ester and amide of rhodanine 2 (Rh 8 and Rh 10, respectively) and ethyl ester of rhodanine 3 (Rh 9) to determine the influence of a carboxyl group modification toward anti-MRSA activity and human serum albumin (HSA) binding.

Escherichia coli Δ acrAB = assay: MIC against E. coli 1411 and AcrAB efflux pump deficient E. coli SM1411Δ acrAB; type: cell-based
Procedure: as §1

Pseudomonas aeruginosa [6] = assay: MIC with/without sub-MIC colistin, Pseudomonas aeruginosa; type: cell-based
Procedure: as §1

Salmonella Typhimurium [7] = assay: MIC with/without PMBN, Salmonella Typhimurium; type: cell-based
Procedure: as §1

Salmonella Typhimurium [8] = assay: MIC with/without sub-MIC colistin, Salmonella Typhimurium; type: cell-based
Procedure: as §1

Pseudomonas aeruginosa [9] = assay: MIC with/without PMBN, Pseudomonas aeruginosa; type: cell-based
Procedure: as §1

Escherichia coli O157:H7 [10] = assay: MIC with/without sub-MIC colistin, Escherichia coli O157:H7; type: cell-based
Procedure: as §1

Mycobacterium smegmatis = assay: Broth microdilution MIC/MBC, Mycobacterium smegmatis; type: cell-based; settings: Mycolicibacterium smegmatis, ATCC14468, M. Smegmatis ATCC 14468
[11] = Escherichia coli O157:H7 ATCC 35150, PMBN (+) 4 μg/mL, read-out: MIC
[12] = Escherichia coli O157:H7 ATCC 700728, PMBN (+) 4 μg/mL, read-out: MIC
[13] = Acinetobacter baumannii ATCC BAA747, colistin (+) […], read-out: MIC
[14] = Acinetobacter baumannii ATCC BAA19606, colistin (+) […], read-out: MIC
[15] = Acinetobacter baumannii, ATCCBAA747
[16] = Acinetobacter baumannii, ATCCBAA19606
[17] = Klebsiella pneumoniae ATCC BAA 1706, PMBN (+) 4 μg/mL
[18] = Klebsiella pneumoniae ATCC BAA 2146, PMBN (+) 4 μg/mL
[19] = Klebsiella pneumoniae ATCC BAA 2146, colistin (+) […]
[20] = Acinetobacter baumannii ATCC BAA747, PMBN (+) 4 μg/mL, read-out: MIC
[21] = Acinetobacter baumannii ATCC BAA19606, PMBN (+) 4 μg/mL, read-out: MIC
[22] = E.coli 1411 SM (Δ acrAB, AcrAB efflux pump deficient)
[23] = Pseudomonas aeruginosa ATCC 921, colistin (+) […], read-out: MIC
[24] = Pseudomonas aeruginosa, ATCC921
[25] = Salmonella Typhimurium ATCC 700720, PMBN (+) 4 μg/mL, read-out: MIC
[26] = Salmonella enterica, ATCC 700720 / TYPHIMURIUM
[27] = Salmonella Typhimurium ATCC 700720, colistin (+) […], read-out: MIC
[28] = Pseudomonas aeruginosa ATCC 9721, PMBN (+) 4 μg/mL, read-out: MIC
[29] = Pseudomonas aeruginosa, ATCC9721
[30] = Escherichia coli O157:H7 ATCC 35150, colistin (+) […], read-out: MIC
[31] = Escherichia coli O157:H7 ATCC 700728, colistin (+) […], read-out: MIC

Structure (SMILES)	MIC (Escherichia coli O157:H7 [1]; [11])	MIC (Escherichia coli O157:H7 [1]; [12])	MIC (Acinetobacter baumannii [2]; [13])	MIC (Acinetobacter baumannii [2]; [14])	MIC (Klebsiella pneumoniae [3]; [17])	MIC (Klebsiella pneumoniae [3]; [18])	MIC (Klebsiella pneumoniae [3]; Klebsiella pneumoniae, BAA1706)	MIC (Klebsiella pneumoniae [3]; Klebsiella pneumoniae, BAA2146)	MIC (Klebsiella pneumoniae [4]; [19])	MIC (Klebsiella pneumoniae [4]; Klebsiella pneumoniae, BAA2146)	MIC (Acinetobacter baumannii [5]; [20])	MIC (Acinetobacter baumannii [5]; [21])	MIC (Escherichia coli Δ acrAB; E.coli 1411)	MIC (Escherichia coli Δ acrAB; [22])	MIC (Pseudomonas aeruginosa [6]; [23])	MIC (Salmonella Typhimurium [7]; [25])	MIC (Salmonella Typhimurium [8]; [27])	MIC (Pseudomonas aeruginosa [9]; [28])	MIC (Escherichia coli O157:H7 [10]; [30])	MIC (Escherichia coli O157:H7 [10]; [31])	further results
CCCCCCCCCC(=O)N[C@@H](Cc1c[nH]c2ccccc12)C(=O)N[C@H](CC(N)=O)C(=O)N[C@@H](CC(=O)O)C(=O)N[C@@H]1C(=O)NCC(=O)N[C@@H](CCCN)C(=O)N[C@@H](CC(=O)O)C(=O)N[C@H](C)C(=O)N[C@@H](CC(=O)O)C(=O)NCC(=O)N[C@H](CO)C(=O)N[C@@H]([C@H](C)CC(=O)O)C(=O)N[C@@H](CC(=O)c2ccccc2N)C(=O)O[C@@H]1C [Daptomycin, reference compound]	>256 µM	>64 µM	>64 µM	>64 µM	>64 µM	>64 µM	> 128 µM	> 128 µM	>64 µM	> 128 µM	>64 µM	>64 µM	> 64 µM	> 64 µM	>64 µM	>128 µM	>64 µM	>64 µM	>64 µM	>64 µM	MIC (Escherichia coli O157:H7 [1]; ATCC35150, Escherichia coli O157:H7 ATCC 35150, PMBN (-), read-out: MIC): > 256 µM; MIC (Escherichia coli O157:H7 [1]; ATCC700728, Escherichia coli O157:H7 ATCC 700728, PMBN (-), read-out: MIC): > 128 µM; MIC (Acinetobacter baumannii [2]; [15]): > 128 µM; MIC (Acinetobacter baumannii [2]; [16]): > 128 µM; MIC (Acinetobacter baumannii [5]; [15]): > 128 µM; MIC (Acinetobacter baumannii [5]; [16]): > 128 µM; MIC (MRSA USA300; 24 h, Media TSB + 4% HSA): 64 µM; MIC (MRSA USA300; Media TSB): 4 µM (≈ 6.48 µg/mL); MIC (Pseudomonas aeruginosa [6]; [24]): > 128 µM; MIC (Salmonella Typhimurium [7]; [26]): > 128 µM; MIC (Salmonella Typhimurium [8]; [26]): > 128 µM; MIC (Pseudomonas aeruginosa [9]; [29]): > 128 µM; MIC (Escherichia coli O157:H7 [10]; ATCC35150, Escherichia coli O157:H7 ATCC 35150, colistin (-), read-out: MIC): > 128 µM; MIC (Escherichia coli O157:H7 [10]; ATCC700728, Escherichia coli O157:H7 ATCC 700728, colistin (-), read-out: MIC): > 128 µM
CC[C@H]1OC(=O)[C@H](C)[C@@H](O[C@H]2C[C@@](C)(OC)[C@@H](O)[C@H](C)O2)[C@H](C)[C@@H](O[C@@H]2O[C@H](C)C[C@H](N(C)C)[C@H]2O)[C@](C)(O)C[C@@H](C)C(=O)[C@H](C)[C@@H](O)[C@]1(C)O [Erythromycin, erythromycin, reference compound]	4 µM (≈ 2.94 µg/mL)	2 µM (≈ 1.47 µg/mL)	1 µM (≈ 0.734 µg/mL)	2 µM (≈ 1.47 µg/mL)	64 µM (≈ 47 µg/mL)	>64 µM	> 128 µM	> 128 µM	>64 µM	> 128 µM	≤0.5 µM	2 µM (≈ 1.47 µg/mL)	> 64 µM	2 µM (≈ 1.47 µg/mL)	16 µM (≈ 11.7 µg/mL)	4 µM (≈ 2.94 µg/mL)	16 µM (≈ 11.7 µg/mL)	1 µM (≈ 0.734 µg/mL)	≤0.5 µM	≤0.5 µM	MIC (Escherichia coli O157:H7 [1]; Escherichia coli, ATCC35150): 128 µM (≈ 93.9 µg/mL); MIC (Escherichia coli O157:H7 [1]; Escherichia coli, ATCC700728): 32 µM (≈ 23.5 µg/mL); MIC (Acinetobacter baumannii [2]; ATCCBAA747, Acinetobacter baumannii ATCC BAA747, colistin (-), read-out: MIC): 4 µM (≈ 2.94 µg/mL); MIC (Acinetobacter baumannii [2]; ATCCBAA19606, Acinetobacter baumannii ATCC BAA19606, colistin (-), read-out: MIC): 16 µM (≈ 11.7 µg/mL); MIC (Acinetobacter baumannii [5]; ATCCBAA747, Acinetobacter baumannii ATCC BAA747, PMBN (-), read-out: MIC): 4 µM (≈ 2.94 µg/mL); MIC (Acinetobacter baumannii [5]; ATCCBAA19606, Acinetobacter baumannii ATCC BAA19606, PMBN (-), read-out: MIC): 16 µM (≈ 11.7 µg/mL); MIC (Pseudomonas aeruginosa [6]; ATCC921, Pseudomonas aeruginosa ATCC 921, colistin (-), read-out: MIC): 64 µM (≈ 47 µg/mL); MIC (Salmonella Typhimurium [7]; Salmonella enterica, ATCC 700720 / TYPHIMURIUM, Salmonella Typhimurium ATCC 700720, PMBN (-), read-out: MIC): 64 µM (≈ 47 µg/mL); MIC (Salmonella Typhimurium [8]; Salmonella enterica, ATCC 700720 / TYPHIMURIUM, Salmonella Typhimurium ATCC 700720, colistin (-), read-out: MIC): 64 µM (≈ 47 µg/mL); MIC (Pseudomonas aeruginosa [9]; ATCC9721, Pseudomonas aeruginosa ATCC 9721, PMBN (-), read-out: MIC): 64 µM (≈ 47 µg/mL); MIC (Escherichia coli O157:H7 [10]; Escherichia coli, ATCC35150): 32 µM (≈ 23.5 µg/mL); MIC (Escherichia coli O157:H7 [10]; Escherichia coli, ATCC700728): 32 µM (≈ 23.5 µg/mL)
CC(=O)O[C@H]1C[C@@]2(C)[C@@H](C[C@@H](O)[C@H]3[C@@]4(C)CC[C@@H](O)[C@@H](C)[C@@H]4CC[C@@]32C)/C1=C(\CCC=C(C)C)C(=O)O [Fusidic acid, fusidic acid, reference compound]	4 µM (≈ 2.07 µg/mL)	32 µM (≈ 16.5 µg/mL)	1 µM (≈ 0.517 µg/mL)	≤0.5 µM	16 µM (≈ 8.27 µg/mL)	>64 µM	> 128 µM	> 128 µM	>64 µM	> 128 µM	2 µM (≈ 1.03 µg/mL)	2 µM (≈ 1.03 µg/mL)	> 64 µM	4 µM (≈ 2.07 µg/mL)	>64 µM	64 µM (≈ 33.1 µg/mL)	64 µM (≈ 33.1 µg/mL)	4 µM (≈ 2.07 µg/mL)	≤0.5 µM	≤0.5 µM	MIC (Escherichia coli O157:H7 [1]; Escherichia coli, ATCC35150): > 256 µM; MIC (Escherichia coli O157:H7 [1]; Escherichia coli, ATCC700728): > 128 µM; MIC (Acinetobacter baumannii [2]; [15]): > 128 µM; MIC (Acinetobacter baumannii [2]; [16]): 128 µM (≈ 66.1 µg/mL); MIC (Acinetobacter baumannii [5]; [15]): > 128 µM; MIC (Acinetobacter baumannii [5]; [16]): 128 µM (≈ 66.1 µg/mL); MIC (Pseudomonas aeruginosa [6]; [24]): > 128 µM; MIC (Salmonella Typhimurium [7]; [26]): > 128 µM; MIC (Salmonella Typhimurium [8]; [26]): > 128 µM; MIC (Pseudomonas aeruginosa [9]; [29]): > 128 µM; MIC (Escherichia coli O157:H7 [10]; Escherichia coli, ATCC35150): > 128 µM; MIC (Escherichia coli O157:H7 [10]; Escherichia coli, ATCC700728): > 128 µM
CO[C@H]1/C=C/O[C@@]2(C)Oc3c(C)c(O)c4c(O)c(c(/C=N/N5CCN(C)CC5)c(O)c4c3C2=O)NC(=O)/C(C)=C\C=C\[C@H](C)[C@H](O)[C@@H](C)[C@@H](O)[C@@H](C)[C@H](OC(C)=O)[C@@H]1C [Rifampicin, rifampicin, reference compound]																					MBC (Mycobacterium smegmatis; read-out: MBC): > 64 µM; MIC (Mycobacterium smegmatis; read-out: MIC): 32 µM (≈ 26.3 µg/mL)
